# From patent US5688949A, “Pyrazolo[1,5-A]pyrimidine derivatives and anti-inflammatory agent containing the same” (Otsuka Pharmaceutical Factory, Inc., priority 1991, dated 1997)
# Assays:
# cyclooxygenase [1] = target: T1, cyclooxygenase (Ovis aries, UniProt P05979); assay: Cyclooxygenase inhibitory activity test 2 (fixed concentration, sheep seminal vesicle microsome); format: biochemical; settings: same fixed concentration, 3×10^-7 M; PGE2 producing rate compared with control group
# T1 construct: sheep seminal vesicle microsome, which is a crude enzyme solution; from tissue; host or cells: sheep seminal vesicle microsomes (crude enzyme solution)
# T1 sequence (P05979 25-600): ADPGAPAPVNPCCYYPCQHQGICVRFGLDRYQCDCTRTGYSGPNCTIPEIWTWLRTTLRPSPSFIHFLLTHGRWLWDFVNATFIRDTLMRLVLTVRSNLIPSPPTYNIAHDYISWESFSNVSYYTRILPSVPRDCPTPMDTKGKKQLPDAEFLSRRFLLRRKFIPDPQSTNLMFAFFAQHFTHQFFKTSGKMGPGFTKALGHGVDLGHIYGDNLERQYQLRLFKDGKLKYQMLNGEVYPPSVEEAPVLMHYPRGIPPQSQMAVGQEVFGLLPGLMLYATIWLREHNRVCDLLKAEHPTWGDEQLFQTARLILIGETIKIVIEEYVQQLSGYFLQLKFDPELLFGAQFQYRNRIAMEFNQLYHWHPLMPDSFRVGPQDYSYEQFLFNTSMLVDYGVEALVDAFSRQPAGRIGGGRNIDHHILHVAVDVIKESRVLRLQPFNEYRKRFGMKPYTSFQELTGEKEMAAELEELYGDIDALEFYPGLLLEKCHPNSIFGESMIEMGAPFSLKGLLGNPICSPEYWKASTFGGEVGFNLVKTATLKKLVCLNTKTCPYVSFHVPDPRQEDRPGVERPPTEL
# Method: The preparation of sheep seminal vesicle microsome, which is a crude enzyme solution, and the analysis of the cyclooxygenase activity were carried out according to the method of Miyamoto et al. as follows [cf.
# (§1) That is, a test compound was added to a microsome solution, and the mixture was incubated at 24° C. for two minutes, and then, thereto was added a substrate, ^14 C-arachidonic acid. The mixture was further incubated for two minutes, and the reaction was quenched with a mixture of ether/methanol/0.2M citric acid (30:4:1), and extracted to collect a product produced by cyclooxygenase. The extract was spotted on a thin layer plate and the plate was developed. The fractions containing the arachidonic acid, prostaglandin E2 (PGE2) and the other parts were collected by scratching, respectively. Each part was measured with a scintillation counter, by which the cyclooxygenase activity therein was estimated.
# cyclooxygenase [2] = target: T1, cyclooxygenase; assay: Cyclooxygenase inhibitory activity test 1 (sheep seminal vesicle microsome, 14C-arachidonic acid); format: biochemical
# Method: Cyclooxygenase inhibitory activity test 1:
# The preparation of sheep seminal vesicle microsome, which is a crude enzyme solution, and the analysis of the cyclooxygenase activity were carried out according to the method of Miyamoto et al. as follows [cf. Proc. Natl. Acad. Sci., U.S.A., 71, 3645 (1974) and J. Biol. Chem., 251, 2629 (1976)].
# as §1
# The compounds prepared in Examples 2, 38, 44 and 46 were tested in the above experiment, and there were obtained the concentrations of the test compounds required to reduce the cyclooxygenase activity to 50% (cyclooxygenase inhibitory rate; IC50 value).
SMILES,inhibition at 0.3 µM (cyclooxygenase [1]) [%],"IC50 value relative to that of indomethacin (""times as high as that of indomethacin"") (cyclooxygenase [2]; reference compound indomethacin) [times]","IC50 (cyclooxygenase [2]; sheep seminal vesicle microsome, 24° C., two minutes preincubation, two minutes with 14C-arachidonic acid, read-out: IC50 value (concentration required to reduce the cyclooxygenase activity to 50%)) [nM]"
"Cc1cc(Nc2cc(C(C)(C)C)c(O)c(C(C)(C)C)c2)n2nccc2n1 [Example 2, 5-methyl-7-(3,5-di-t-butyl-4-hydroxyphenyl)aminopyrazolo[1,5-a]pyrimidine]",65,27.8,300
CCCCc1cc(Nc2cc(C(C)(C)C)c(O)c(C(C)(C)C)c2)n2nccc2n1 [Example 38],48.2,,
CCc1cc(Nc2cc(C(C)(C)C)c(O)c(C(C)(C)C)c2)n2nccc2n1 [Example 44],55.9,,
CC(C)(C)c1cc(Nc2cc(C3CC3)nc3ccnn23)cc(C(C)(C)C)c1O [Example 46],50.5,,
